Activity calls are given as the source filed them.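 The calls were made as follows: active = half-maximal concentration at most 10 µM from a sound curve fit, with response shifting 30% or more across doses; inactive = the rest.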
Target: GTPase HRas (Homo sapiens) (UniProt P01112)
Assay: H-Ras act fluorescent GTP binding inhibition – biochemical, multiplex bead flow cytometry, round 1, selectivity assay for Cdc42 probe extension project, SAR follow-up (AID 588381)
Details: GST-H-Ras act beads, Bodipy-FL-GTP binding; for response, lower = inhibition: at 100 µM (top of the series)

GTPase HRas (Homo sapiens), sequence (P01112 whole entry, looked up): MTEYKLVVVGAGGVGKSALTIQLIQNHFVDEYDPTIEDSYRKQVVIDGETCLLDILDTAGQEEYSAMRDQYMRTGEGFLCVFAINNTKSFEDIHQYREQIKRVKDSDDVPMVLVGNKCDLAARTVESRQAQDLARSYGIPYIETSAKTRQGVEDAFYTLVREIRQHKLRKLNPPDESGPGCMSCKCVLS

Structure (SMILES) | response, lower = inhibition | EC50 [nM]
O=C(C#Cc1ccccc1)c1cccc([N+](=O)[O-])c1 | inactive | –
NS(=O)(=O)c1ccc(N2N=C(c3ccccc3)CC2c2ccccc2)cc1 (centres undefined) | inactive | –
COc1ccc(C2CC(c3ccccc3)=NN2c2ccc(S(N)(=O)=O)cc2)cc1 (centres undefined) | inactive | –
CC1(C)Cc2c(sc(NC(=S)NC(=O)c3ccccc3)c2C(=O)O)CO1 | – | 82

From PubChem BioAssay AID588381 (NMMLSC, 2011)
